Results reported in ChEMBL document CHEMBL1933046, “Synthesis and antibacterial activity of a novel series of acylides active against community acquired respiratory pathogens” (2012).
Converted amounts (≈) assume the structure as drawn.

Tests used:
Assay type in all cases: functional
Streptococcus pneumoniae [1] = assay: Antibacterial activity against Streptococcus pneumoniae 994 expressing mef gene by NCCLS method
Streptococcus pyogenes = assay: Antibacterial activity against Streptococcus pyogenes 19615 by NCCLS method
Haemophilus influenzae = assay: Antibacterial activity against Haemophilus influenzae 38 by NCCLS method
Moraxella catarrhalis = assay: Antibacterial activity against Moraxella catarrhalis 8176 by NCCLS method
Streptococcus pneumoniae [2] = assay: Antibacterial activity against Streptococcus pneumoniae 6303 by NCCLS method
Streptococcus pneumoniae [3] = assay: Antibacterial activity against Streptococcus pneumoniae 49619 by NCCLS method
Streptococcus pneumoniae [4] = assay: Antibacterial activity against Streptococcus pneumoniae 3579 expressing erm gene by NCCLS method
Streptococcus pneumoniae [5] = assay: Antibacterial activity against Streptococcus pneumoniae by NCCLS method

MIC (Streptococcus pneumoniae [1]) | MIC (Streptococcus pyogenes) | MIC (Haemophilus influenzae) | MIC (Moraxella catarrhalis) | MIC (Streptococcus pneumoniae [2]) | MIC (Streptococcus pneumoniae [3]) | MIC (Streptococcus pneumoniae [4]) | Structure (SMILES) | MIC (Streptococcus pneumoniae [5])
0.125 µg/mL (≈ 0.132 µM) | 0.03 µg/mL (≈ 0.0316 µM) | 0.125 µg/mL (≈ 0.132 µM) | 0.125 µg/mL (≈ 0.132 µM) | 0.125 µg/mL (≈ 0.132 µM) | 0.06 µg/mL (≈ 0.0632 µM) | 0.5 µg/mL (≈ 0.527 µM) | C=CCN(C)[C@H]1C[C@@H](C)O[C@@H](O[C@@H]2[C@@H](C)[C@H](OC(=O)Cc3ccccn3)[C@@H](C)C(=O)O[C@H](CC)[C@@]3(C)OC(=O)N(CCCCn4cnc5c(N)ncnc54)[C@@H]3[C@@H](C)C(=O)[C@H](C)C[C@@]2(C)OC)[C@@H]1O | 
0.06 µg/mL (≈ 0.0633 µM) | 0.06 µg/mL (≈ 0.0633 µM) | 1 µg/mL (≈ 1.06 µM) | 0.25 µg/mL (≈ 0.264 µM) | 0.06 µg/mL (≈ 0.0633 µM) | 0.015 µg/mL (≈ 0.0158 µM) | 1 µg/mL (≈ 1.06 µM) | CC[C@H]1OC(=O)[C@H](C)[C@@H](OC(=O)Cc2ccccn2)[C@H](C)[C@@H](O[C@@H]2O[C@H](C)C[C@H](N(C)CC)[C@H]2O)[C@](C)(OC)C[C@@H](C)C(=O)[C@H](C)[C@H]2N(CCCCn3cnc(-c4cccnc4)c3)C(=O)O[C@]12C | 
0.125 µg/mL (≈ 0.13 µM) | 0.06 µg/mL (≈ 0.0626 µM) | 0.125 µg/mL (≈ 0.13 µM) | 0.25 µg/mL (≈ 0.261 µM) | 0.03 µg/mL (≈ 0.0313 µM) | 0.03 µg/mL (≈ 0.0313 µM) | 1 µg/mL (≈ 1.04 µM) | C=CCN(C)[C@H]1C[C@@H](C)O[C@@H](O[C@@H]2[C@@H](C)[C@H](OC(=O)Cc3cccnc3)[C@@H](C)C(=O)O[C@H](CC)[C@@]3(C)OC(=O)N(CCCCn4cnc(-c5cccnc5)c4)[C@@H]3[C@@H](C)C(=O)[C@H](C)C[C@@]2(C)OC)[C@@H]1O | 
0.125 µg/mL (≈ 0.13 µM) | 0.03 µg/mL (≈ 0.0312 µM) | 0.125 µg/mL (≈ 0.13 µM) | 0.125 µg/mL (≈ 0.13 µM) | 0.06 µg/mL (≈ 0.0624 µM) | 0.06 µg/mL (≈ 0.0624 µM) | 0.25 µg/mL (≈ 0.26 µM) | CC[C@H]1OC(=O)[C@H](C)[C@@H](OC(=O)Cc2cccnc2)[C@H](C)[C@@H](O[C@@H]2O[C@H](C)C[C@H](N(C)CC)[C@H]2O)[C@](C)(OC)C[C@@H](C)C(=O)[C@H](C)[C@H]2N(CCCCn3cnc(-c4ccc(N)nc4)c3)C(=O)O[C@]12C | 
0.06 µg/mL (≈ 0.0625 µM) | 0.03 µg/mL (≈ 0.0312 µM) | < 0.06 µg/mL | 0.125 µg/mL (≈ 0.13 µM) | 0.03 µg/mL (≈ 0.0312 µM) | 0.03 µg/mL (≈ 0.0312 µM) | 0.25 µg/mL (≈ 0.26 µM) | C=CCN(C)[C@H]1C[C@@H](C)O[C@@H](O[C@@H]2[C@@H](C)[C@H](OC(=O)Cc3ccccn3)[C@@H](C)C(=O)O[C@H](CC)[C@@]3(C)OC(=O)N(CCCCn4cnc(-c5cncnc5)c4)[C@@H]3[C@@H](C)C(=O)[C@H](C)C[C@@]2(C)OC)[C@@H]1O | 
0.25 µg/mL (≈ 0.261 µM) | 0.03 µg/mL (≈ 0.0313 µM) | < 0.06 µg/mL | 0.25 µg/mL (≈ 0.261 µM) | 0.06 µg/mL (≈ 0.0626 µM) | 0.03 µg/mL (≈ 0.0313 µM) | 0.5 µg/mL (≈ 0.522 µM) | C=CCN(C)[C@H]1C[C@@H](C)O[C@@H](O[C@@H]2[C@@H](C)[C@H](OC(=O)Cc3ccccn3)[C@@H](C)C(=O)O[C@H](CC)[C@@]3(C)OC(=O)N(CCCCn4cnc(-c5ccccc5)c4)[C@@H]3[C@@H](C)C(=O)[C@H](C)C[C@@]2(C)OC)[C@@H]1O | 

Structure (SMILES) | MIC (Streptococcus pneumoniae [1]) | MIC (Streptococcus pyogenes) | MIC (Haemophilus influenzae) | MIC (Moraxella catarrhalis) | MIC (Streptococcus pneumoniae [2]) | MIC (Streptococcus pneumoniae [3]) | MIC (Streptococcus pneumoniae [4]) | MIC (Streptococcus pneumoniae [5])
CC[C@H]1OC(=O)[C@H](C)[C@@H](O[C@H]2C[C@@](C)(OC)[C@@H](O)[C@H](C)O2)[C@H](C)[C@@H](O[C@@H]2O[C@H](C)C[C@H](N(C)C)[C@H]2O)[C@](C)(O)C[C@@H](C)CN(C)[C@H](C)[C@@H](O)[C@]1(C)O [AZITHROMYCIN] | 1 µg/mL (≈ 1.34 µM) | 0.25 µg/mL (≈ 0.334 µM) | > 16 µg/mL | 16 µg/mL (≈ 21.4 µM) | 0.25 µg/mL (≈ 0.334 µM) | 0.25 µg/mL (≈ 0.334 µM) | 16 µg/mL (≈ 21.4 µM) | 
CC[C@H]1OC(=O)[C@H](C)[C@@H](O[C@H]2C[C@@](C)(OC)[C@@H](O)[C@H](C)O2)[C@H](C)[C@@H](O[C@@H]2O[C@H](C)C[C@H](N(C)C)[C@H]2O)[C@](C)(O)C[C@@H](C)C(=O)[C@H](C)[C@@H](O)[C@]1(C)O [ERYTHROMYCIN] | 0.5 µg/mL (≈ 0.681 µM) | 0.015 µg/mL (≈ 0.0204 µM) | > 16 µg/mL | 8 µg/mL (≈ 10.9 µM) | 0.25 µg/mL (≈ 0.341 µM) | 0.125 µg/mL (≈ 0.17 µM) | 8 µg/mL (≈ 10.9 µM) | 0.25 µg/mL (≈ 0.341 µM)
